What all share (assay): NCI tumour cell line growth inhibition, 48 h
The test system of assay [1] is OVCAR-4 ovarian.
Assay [2] deals with IGROV1 ovarian.
In assay [3] the test system is RPMI-8226 leukemia.
The subject of assay [4] is OVCAR-8 ovarian.
The subject of assay [5] is SK-OV-3 ovarian.
For assay [6], the system named is A549 NSCLC.
Assay [7] deals with NCI-H460 lung.
Assay [8] deals with NCI-H23 lung.
In assay [9] the test system is OVCAR-3 ovarian.
Assay [10] deals with NCI-H226 lung.

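Tested at 5 concentrations; 48 h exposure; 96-well plates; endpoints linearly interpolated, else capped at highest concentration. GI50: concentration for 50% inhibition of growth. At the TGI there is no net growth.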

Consider `NC(=S)N/N=C/C(O[C@@H](/C=N/NC(N)=S)CO)n1cnc2c(N)ncnc21` (some centres undefined), for which the TGI was more than 100 µM in assay [1]; more than 100 µM in [2]; more than 72.7 µM in assay [3]; more than 100 µM in [4]; more than 100 µM in assay [5]; more than 100 µM in assay [6]. In addition, the TGI in [7] was more than 100 µM; in assay [8], more than 100 µM; in assay [9] it was more than 94.5 µM; in [10], more than 100 µM.
`CC(=O)NC(CCc1ccc(Cl)c(Cl)c1)c1cccc(O)c(=O)c1` (centres undefined): the GI50 in assay [1] was 0.302 µM; in assay [2] it was 0.539 µM; in assay [3] it was 1.22 µM; in [4], 0.346 µM; in [5], 1.43 µM; in assay [6], 0.527 µM. The GI50 in assay [7] is 0.407 µM; in assay [8], 1.11 µM; in assay [9], 0.358 µM; in assay [10], 0.633 µM. Also, the TGI in [1] turned out to be 40.4 µM; in [2], 3.33 µM; in assay [3], 19.7 µM; in [4], 13.1 µM; in [5], 17.4 µM; in assay [6], 11.5 µM. Further, the TGI in assay [7] turned out to be 11.8 µM; in [8] it was 18.9 µM; in assay [9] it was 14.7 µM; in assay [10] it was 14.2 µM.
As for `N=C1C(c2nc3ccccc3c(=O)[nH]2)=C(O)CN1c1cccc(Cl)c1`, the GI50 in assay [1] was more than 23 µM; in assay [2] it was 37.6 µM; in [3], 2.15 µM; in [4], 5.35 µM; in assay [5], 5.55 µM; in [6], 5.36 µM. Further, the GI50 in [7] is 3.72 µM; in assay [8], 4.67 µM; in assay [9], 2.15 µM; in assay [10], more than 100 µM. Moreover, the TGI was more than 100 µM in assay [1]; more than 100 µM in assay [2]; 6.37 µM in assay [3]; more than 100 µM in [4]; more than 100 µM in [5]; more than 100 µM in [6]. Also, the TGI in [7] is more than 85.6 µM; in [8] it was more than 100 µM; in assay [9] it was 5.06 µM; in assay [10], more than 100 µM.
Turning to `C=C1C2CCCC1C1(S(C)(=O)=O)CCCCC21O` (centres undefined), the TGI in [1], in assay [2], in assay [3], in assay [4], in assay [5] and in [6] was more than 100 µM in each case. Besides, the TGI in [7], in assay [8], in assay [9] and in assay [10] was more than 100 µM throughout.
As for `CCP(C)(=O)CC`, the TGI in assay [1], in assay [2], in assay [3], in [4], in assay [5] and in [6] was more than 100 µM in each case. Also, the TGI in assay [7], in assay [8], in assay [9] and in assay [10] was more than 100 µM each time.
Consider `[CH3][Ge]([CH3])([CH2]CC#N)[S]c1ccccc1`, for which the GI50 in assay [1] was 18.6 µM; in assay [2], 0.371 µM; in assay [3] it was 16.2 µM; in [4], 11.5 µM; in assay [5], 21.7 µM; in assay [6] it was 2.19 µM. Also, the GI50 in assay [7] is 16.3 µM; in [8] it was 18.3 µM; in assay [9] it was 12.3 µM; in assay [10], 13.1 µM. Further, the TGI in [1] is 50 µM; in assay [2] it was 1.28 µM; in assay [3], 53.2 µM; in assay [4] it was 46.5 µM; in assay [5] it was 55.9 µM; in [6], more than 100 µM. Further, the TGI in assay [7] was 29.8 µM; in assay [8] it was 46.4 µM; in assay [9], 29.1 µM; in [10], 33.4 µM.
Consider `Cn1ccc(S(=O)(=O)N2CCC[C@H](Nc3nccc(-c4c(-c5cccc(O)c5)nc5occn45)n3)C2)n1`, for which the GI50 in [1] was 14.5 µM; in assay [2] it was 10.9 µM; in assay [3], 14.9 µM; in [4], 18.9 µM; in assay [5] it was 5.71 µM; in assay [6] it was 13.2 µM. The GI50 is 15.5 µM in assay [7], 12 µM in assay [8], 13.5 µM in assay [9] and 11.5 µM in assay [10]. For the same compound, the TGI in [1] was more than 85.8 µM; in assay [2], 51.9 µM; in assay [3], 46.4 µM; in assay [4], more than 100 µM; in [5] it was 49.6 µM; in assay [6] it was 42.9 µM. The TGI in [7] was 59.8 µM; in assay [8], 41.8 µM; in [9], 51.9 µM; in assay [10], more than 84.8 µM.
With `NC(=O)NC(=O)Nc1ccc(Br)cc1`, the TGI in [1] is more than 38.5 µM; in [2], more than 100 µM; in assay [3], more than 35 µM; in [4], more than 34.6 µM; in [5], more than 100 µM; in [6] it was more than 100 µM. In addition, the TGI is more than 36.4 µM in assay [7], more than 33.3 µM in assay [8], more than 20.7 µM in assay [9] and more than 39.1 µM in [10].
Turning to `Nc1nc2c(ncn2C2OC(CO)C(O)C2O)c(=O)o1` (centres undefined), the TGI in [1], in assay [2], in [3], in assay [4], in assay [5] and in assay [6] was more than 100 µM throughout. The TGI in assay [7], in [8], in assay [9] and in [10] was more than 100 µM throughout.
For `Cc1cc(NS(=O)(=O)c2ccc(-c3cnc(C4CC4)o3)cc2)ccc1Cl`, the GI50 in assay [1] was 1.86 µM; in assay [2], 0.335 µM; in [3], 0.329 µM; in [4] it was 0.552 µM; in assay [5] it was 0.868 µM; in assay [6] it was 0.437 µM. The GI50 is 0.297 µM in assay [7], 0.57 µM in [8], 0.0745 µM in assay [9] and 0.985 µM in assay [10]. Also, the TGI in assay [1] was 19.5 µM; in assay [2], 13 µM; in assay [3] it was more than 52.1 µM; in [4], 17.7 µM; in assay [5], 20.8 µM; in assay [6], 14.9 µM. Further, the TGI is 11.1 µM in [7], 15.6 µM in assay [8], 11.4 µM in assay [9] and 17.5 µM in assay [10].
For `Cn1cc(Nc2nccc(-c3ccc4c(c3)CN(C3COC3)CC[C@H]4NC(=O)c3cn(C(C)(C)C)nn3)n2)cn1`, the GI50 was more than 100 µM in assay [1]; 32 µM in [2]; more than 100 µM in assay [3]; more than 100 µM in assay [4]; 62.5 µM in assay [5]; 86.8 µM in [6]. The GI50 in assay [7] was 85.9 µM; in [8], more than 100 µM; in [9] it was more than 100 µM; in assay [10], 38.9 µM. The TGI in [1], in assay [2], in assay [3], in assay [4], in [5] and in assay [6] was more than 100 µM throughout. In addition, the TGI in assay [7], in assay [8], in [9] and in [10] was more than 100 µM each time.
Regarding `c1ccc(-c2sc(-c3ccccc3)c3c2C(c2ccccc2)c2c(-c4ccccc4)sc(-c4ccccc4)c2C3c2ccccc2)cc1` (centres undefined), the TGI in assay [1], in assay [2], in assay [3], in assay [4], in assay [5] and in [6] was more than 100 µM throughout. Moreover, the TGI in assay [7], in assay [8], in assay [9] and in [10] was more than 100 µM in each case.
As to `CCN(CC)Cc1cc(Nc2ccnc3ccc(OC)cc23)ccc1O`, the GI50 in assay [1] is 2.54 µM; in [3], 3.97 µM; in assay [4], 7.21 µM; in assay [5], 7.15 µM; in assay [6], 4.37 µM; in assay [7], 3.28 µM. Also, the GI50 in assay [8] is 7.46 µM; in [9], 3.2 µM; in assay [10], 4.15 µM. Further, the TGI came to 11.6 µM in assay [1]; 15.1 µM in assay [3]; 34.5 µM in [4]; 34.5 µM in [5]; 18.1 µM in assay [6]; 10.4 µM in [7]. For the same compound, the TGI was determined as 26.5 µM in [8], 20.4 µM in [9] and 21.7 µM in assay [10].
On to `Cc1ncnc2c1ccn2[C@@H]1C[C@H](Oc2cc(C(F)F)c(F)c3c2CNCC3)[C@@H](O)[C@H]1O`, for which the GI50 in [1], in assay [2], in assay [3], in assay [4], in [5] and in assay [6] was more than 100 µM throughout. The GI50 in assay [7], in assay [9] and in assay [10] was more than 100 µM each time. The TGI in assay [1], in [2], in assay [3], in assay [4], in assay [5] and in assay [6] was more than 100 µM in each case. The TGI in assay [7], in [9] and in assay [10] was more than 100 µM in each case.
Take `O=C(Nc1ccc(Nc2ccc(NC(=O)c3ccccc3)c3c2C(=O)c2ccccc2C3=O)c2c1C(=O)c1ccccc1C2=O)c1ccccc1`: the TGI in assay [1], in [2], in assay [3], in assay [4], in assay [5] and in assay [6] was more than 100 µM each time. Further, the TGI in [7], in assay [9] and in assay [10] was more than 100 µM throughout.
Turning to `CCN1C[C@@H](C)n2c(c(O)c3c(=O)n(Cc4ccc(F)c(Cl)c4)nc(C(=O)NC)c32)C1=O`, the GI50 was 3.18 µM in [1]; 3.74 µM in [2]; 2.59 µM in assay [3]; 3.34 µM in [4]; 3.3 µM in assay [5]; 3.14 µM in assay [6]. For the same compound, the GI50 was 3.15 µM in [7], 2.7 µM in assay [8] and 3.31 µM in assay [10]. Further, the TGI was 44.6 µM in assay [1]; more than 100 µM in assay [2]; 7.37 µM in assay [3]; more than 100 µM in assay [4]; 9.64 µM in [5]; more than 100 µM in [6]. The TGI in assay [7] is 10.7 µM; in assay [8] it was 8.62 µM; in assay [10], more than 100 µM.
In the case of `CCN(CC)CCOc1ccc2c(-c3ccccc3)c(-c3ccc(OC)cc3)c(=O)oc2c1`, the GI50 in [1] was 4.8 µM; in assay [3], 2.56 µM; in assay [4], 13.1 µM; in assay [5] it was 11 µM; in assay [6], 7.76 µM; in assay [7] it was 2.5 µM. Besides, the GI50 was 4.11 µM in [8], 4.32 µM in [9] and 13.6 µM in [10]. Besides, the TGI in assay [1] worked out at 18.1 µM; in assay [3] it was 11.8 µM; in [4], 29.1 µM; in assay [5], 23 µM; in assay [6], 22 µM; in assay [7] it was 6.06 µM. The TGI in assay [8] amounted to 16.5 µM; in assay [9], 16.5 µM; in assay [10] it was 32.5 µM.
Turning to `O=c1[nH]c(-c2ccccc2)nc2cc([N+](=O)[O-])c(/C(Cl)=C/c3ccccc3)cc12`, the TGI in assay [1] is 49.5 µM; in [2], more than 100 µM; in [3], 88.7 µM; in assay [4], 45.4 µM; in [5], 72.2 µM; in [6], more than 100 µM. For the same compound, the TGI in [8], in assay [9] and in assay [10] was more than 100 µM throughout.
With `COC12OCCN(C)C1=CC(=O)C1N=NCC12` (centres undefined), the TGI in assay [2], in [3], in [4], in assay [5], in assay [6] and in assay [7] was more than 100 µM throughout. Besides, the TGI in assay [8], in [9] and in assay [10] was more than 100 µM throughout.

Values taken from PubChem BioAssay (NCI).
